Experimental data from patent publication US7435740B2 (King Pharmaceuticals Research and Development, Inc., priority 2005, dated 2008).
Read-outs that look alike come from different tables or passages of the source.

What was measured:
[1] = target: T1, human recombinant A2B adenosine receptor (Homo sapiens, UniProt P29275); assay: cAMP assay in CHO hA2B; assay type: cell-based; settings: for cAMP assay in CHO hA22B, percentage in parentheses: percentage given after the > bound, meaning not defined in the patent; for IC50: confidence limits in parentheses, read-out: cAMP assay in CHO hA22B IC50
T1 sequence (P29275 1-332): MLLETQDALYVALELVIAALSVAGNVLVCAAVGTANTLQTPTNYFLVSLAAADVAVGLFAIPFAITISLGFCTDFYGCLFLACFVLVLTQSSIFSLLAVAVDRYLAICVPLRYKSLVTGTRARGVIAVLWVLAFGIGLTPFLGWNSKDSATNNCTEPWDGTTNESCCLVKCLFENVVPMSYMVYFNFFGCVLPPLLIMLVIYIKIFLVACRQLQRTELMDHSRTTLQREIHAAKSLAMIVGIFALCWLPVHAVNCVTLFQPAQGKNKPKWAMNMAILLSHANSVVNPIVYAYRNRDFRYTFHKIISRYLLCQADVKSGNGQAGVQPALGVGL

[2] = target: human recombinant A2A adenosine receptors (Homo sapiens, UniProt P29274); assay: Radioligand binding to hA2A receptors expressed in CHO cells; settings: for [3H] ZM 241385 binding to hA2A receptors, percentage in parentheses: percentage given after the > bound, meaning not defined in the patent
Description: (§1) For membrane preparation the culture medium was removed and the cells were washed with PBS and scraped off T75 flasks in ice-cold hypotonic buffer (5 mM Tris HCl, 2 mM EDTA, pH 7.4).
(§2) The cell suspension was homogenized with Polytron and the homogenate was spun for 10 min at 1,000×g. The supernatant was then centrifuged for 30 min at 100,000×g. […] Then the suspension was frozen at −80° C.
(§3) Ki=IC50/(1+[C*]/KD*), where [C*] is the concentration of the radioligand and KD* its dissociation constant.

[3] = target: T2, human recombinant A1 adenosine receptor (Homo sapiens, UniProt P30542); assay: [3H]-DPCPX binding to human A1 adenosine receptor expressed in CHO cells; settings: for [3H] DPCPX binding to hA1, percentage in parentheses: percentage given after the > bound, meaning not defined in the patent
T2 sequence (P30542 1-326): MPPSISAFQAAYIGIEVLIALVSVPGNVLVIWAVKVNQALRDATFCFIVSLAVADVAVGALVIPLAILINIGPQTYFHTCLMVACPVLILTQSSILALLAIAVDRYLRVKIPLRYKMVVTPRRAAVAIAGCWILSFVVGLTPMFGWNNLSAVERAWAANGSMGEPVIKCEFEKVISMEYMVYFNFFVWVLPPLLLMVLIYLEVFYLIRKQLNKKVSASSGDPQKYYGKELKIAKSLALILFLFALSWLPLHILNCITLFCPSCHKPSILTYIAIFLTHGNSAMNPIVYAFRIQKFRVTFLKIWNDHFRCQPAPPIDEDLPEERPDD
Description: as §1, §2, §3

[4] = target: T3, human recombinant A3 adenosine receptors (Homo sapiens, UniProt P0DMS8); assay: [3H]-MRE 3008F20 binding to hA3 receptors expressed in CHO cells; settings: for Ki: CHO cell membranes, 1 nM [3H]-MRE 3008F20, geometric mean, confidence limits in the line below, read-out: [3H] MRE3008F20 binding to hA3 receptors expressed in CHO cells Ki; for [3H] MRE3008F20 binding to hA3 receptors, percentage in parentheses: percentage printed below the > bound, meaning not defined in the patent; for A3 receptor affinity (in words) / selectivity versus the adenosine hA1 subtype (in words): qualitative statement; for selectivity versus the adenosine hA1 subtype (in words): hA3 versus hA1
T3 construct: expressed in transfected cells; host or cells: CHO cells (membranes)
T3 sequence (P0DMS8 1-318): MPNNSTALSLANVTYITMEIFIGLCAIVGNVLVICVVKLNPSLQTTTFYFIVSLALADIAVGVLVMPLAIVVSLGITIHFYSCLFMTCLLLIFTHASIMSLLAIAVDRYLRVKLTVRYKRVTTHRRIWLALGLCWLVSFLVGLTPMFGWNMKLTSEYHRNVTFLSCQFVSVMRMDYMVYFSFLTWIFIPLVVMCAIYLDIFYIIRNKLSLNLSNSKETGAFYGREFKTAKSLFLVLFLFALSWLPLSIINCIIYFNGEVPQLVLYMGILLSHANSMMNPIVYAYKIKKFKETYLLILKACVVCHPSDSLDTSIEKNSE
Description: as §1, §2
Non-specific binding was defined as binding in the presence of 1 μM MRE 3008F20 and was about 30% of total binding.
as §3

[5] = read-out: [3H] DPCPX binding to hA1, CHO cell membranes, 1 nM [3H]-DPCPX, geometric mean with confidence limits in parentheses

Sequence of human recombinant A2A adenosine receptors (P29274 whole entry): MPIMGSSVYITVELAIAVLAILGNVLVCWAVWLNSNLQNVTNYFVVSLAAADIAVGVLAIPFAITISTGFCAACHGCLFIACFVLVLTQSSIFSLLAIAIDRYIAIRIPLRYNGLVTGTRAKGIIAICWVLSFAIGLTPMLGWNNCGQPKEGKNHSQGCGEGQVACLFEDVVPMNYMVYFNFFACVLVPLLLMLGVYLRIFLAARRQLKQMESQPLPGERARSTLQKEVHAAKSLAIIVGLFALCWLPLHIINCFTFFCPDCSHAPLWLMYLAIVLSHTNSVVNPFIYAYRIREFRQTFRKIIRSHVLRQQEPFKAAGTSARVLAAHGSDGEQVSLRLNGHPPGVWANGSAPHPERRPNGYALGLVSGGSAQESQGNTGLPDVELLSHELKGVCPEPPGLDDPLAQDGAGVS

Row | Structure (SMILES) | cAMP assay in CHO hA22B, percentage in parentheses [1] [%] | melting point [°C] | [3H] ZM 241385 binding to hA2A receptors, percentage in parentheses [2] [%] | [3H] DPCPX binding to hA1, percentage in parentheses [3] [%] | Ki [4] [nM] | IC50 [1] [nM] | Ki [2] [nM] | Ki [3] [nM] | [3H] MRE3008F20 binding to hA3 receptors, percentage in parentheses [4] | Ki [3, 5] [nM] | A3 receptor affinity (in words) [4] | selectivity versus the adenosine hA1 subtype (in words) [4]
1 | CCCn1c(=O)c2c(nc3[nH]c(CC)cn32)n(Cc2ccccc2)c1=O [Compound 20, 1-Benzyl-7-ethyl-3-propyl-1H-imidazo[1,2-f]purine-2,4(3H,8H)-dione] | 97 | 285 | 99 | 65 | 15 |  |  |  |  |  |  | 
2 | CCCn1c(=O)c2c(nc3n2CC(c2ccccc2)=NN3CCO)n(Cc2ccccc2)c1=O [Compound 7, 8-Benzyl-1-(2-hydroxy-ethyl)-3-phenyl-6-propyl-1,4-dihydro-8H-1,2,4a,6,8,9-hexaaza-fluorene-5,7-dione] | 83 |  | 99 | 91 | > 1000 | > 1000 | > 1000 | > 1000 | (99%) |  |  | 
3 | CCCn1c(=O)c2c(nc3[nH]c(C4CC4)cn32)n(Cc2ccccc2)c1=O [Compound 23, 1-Benzyl-7-cyclopropyl-3-propyl-1H-imidazo[1,2-f]purine-2,4(3H,8H)-dione] | 79 | 244 to 245 | 98 |  | 23 |  |  |  |  | 350 |  | 
4 | CCCn1c(=O)c2c(nc3[nH]c(CC)c(C)n32)n(Cc2ccccc2)c1=O [Compound 26, 1-Benzyl-7-ethyl-6-methyl-3-propyl-1H-imidazo[1,2-f]purine-2,4(3H,8H)-dione] | 73 | 230 | 97 | 80 | 60 |  |  |  |  |  |  | 
5 | CCCn1c(=O)c2c(nc3n2CC(CC)=C3)n(Cc2ccccc2)c1=O [Compound 18, 1-Benzyl-7-ethyl-3-propyl-1H-pyrrolo[1,2-f]purine-2,4(3H,6H)-dione] | 71 |  |  |  |  |  |  |  |  |  |  | 
6 | CC(C)Cn1c(=O)c2c(nc3[nH]c(-c4ccccc4)cn32)n(CC(C)C)c1=O [Compound 9, 1,3-Diisobutyl-7-phenyl-1H-imidazo[1,2-f]purine-2,4(3H,8H)-dione] | 99 |  | 86 |  | 144 | > 1000 | > 1000 |  |  | 476 | substantial maintenance of A3 receptor affinity | significant loss of selectivity
7 | CCCn1c(=O)c2c(nc3[nH]c(C(C)C)cn32)n(Cc2ccccc2)c1=O [Compound 21, 1-Benzyl-7-isopropyl-3-propyl-1H-imidazo[1,2-f]purine-2,4(3H,8H)-dione] | 77 | 128 to 130 | 91 |  | 31 |  |  |  |  | 460 |  | 
8 | CCCn1c(=O)c2c(nc3[nH]c(-c4ccc(F)cc4)cn32)n(Cc2ccccc2)c1=O [Compound 5, 1-Benzyl-7-(4-fluorophenyl)-3-propyl-1H-imidazo[1,2-f]purine-2,4(3H,8H)-dione] |  | 250 | 97 | 90 | 22 |  |  |  |  |  |  | 
9 | CCCn1c(=O)c2c(nc3n2CC(c2ccccc2)=NN3C)n(Cc2ccccc2)c1=O [Compound 6, 8-Benzyl-1-methyl-3-phenyl-6-propyl-1,4-dihydro-8H-1,2,4a,6,8,9-hexaaza-fluorene-5,7-dione] | 94 |  | 99 | 79 | > 1000 | > 1000 | > 1000 | > 1000 | (99%) |  |  | 
10 | CCCn1c(=O)c2c(nc3n2CC(c2ccccc2)=C3)n(Cc2ccccc2)c1=O [Compound 1, 1-Benzyl-7-phenyl-3-propyl-1H-pyrrolo[1,2-f]purine-2,4(3H,6H)-dione] |  |  | 99 | 75 | 200 |  |  |  |  |  |  | 
11 | CCCn1c(=O)c2c(nc3[nH]c(-c4ccc(-c5ccccc5)cc4)cn32)n(Cc2ccccc2)c1=O [Compound 4, 1-Benzyl-7-(biphenyl-4-yl)-3-propyl-1H-imidazo[1,2-f]purine-2,4(3H,8H)-dione] |  | 272 | 98 | 95 | > 1000 |  |  |  | (90%) |  |  | 
12 | CCCn1c(=O)c2c(nc3[nH]c(-c4ccccc4)cn32)n(CCC)c1=O [Compound 8, 7-Phenyl-1,3-dipropyl-1H-imidazo[1,2-f]purine-2,4(3H,8H)-dione] | 61 |  | 78 |  | 99 | > 1000 | > 1000 |  |  | 373 | substantial maintenance of A3 receptor affinity | significant loss of selectivity
13 | CCCn1c(=O)c2c(nc3[nH]c(-c4ccccc4)cn32)n(Cc2ccccc2)c1=O [Compound 2, 1-Benzyl-7-phenyl-3-propyl-1H-imidazo[1,2-f]purine-2,4(3H,8H)-dione] |  | 255 | 99 | 83 | 115 |  |  |  |  |  |  | 
14 | CCCn1c(=O)c2c(nc3[nH]c(-c4ccc(OC)cc4)cn32)n(Cc2ccccc2)c1=O [Compound 3, 1-Benzyl-7-(4-methoxyphenyl)-3-propyl-1H-imidazo[1,2-f]purine-2,4(3H,8H)-dione] |  | 257 | 99 | 99 | 55 |  |  |  |  |  |  | 
15 | Cc1cn2c(nc3c2c(=O)n(C)c(=O)n3C)[nH]1 [Compound 27, 1,3,7-Trimethyl-1H-imidazo[1,2-f]purine-2,4(3H,8H)-dione] | 88 |  | 99 | 96 | > 1000 | > 1000 | > 1000 | > 1000 | (93%) |  |  | 
16 | CCCn1c(=O)c2c(nc3n2C(C)C(C)=C3)n(Cc2ccccc2)c1=O (centres unmarked) [Compound 19, 1-Benzyl-6,7-dimethyl-3-propyl-1H-pyrrolo[1,2-f]purine-2,4(3H,6H)-dione] | 60 |  | 91 | 65 | 80 |  |  |  |  |  |  | 
17 | CCCn1c(=O)c2c(nc3[nH]c(C)cn32)n(Cc2ccccc2)c1=O [Compound 10, 1-Benzyl-7-methyl-3-propyl-1H-imidazo[1,2-f]purine-2,4(3H,8H)-dione] |  | 255 |  |  |  | 2060 |  |  |  |  |  | 
18 | CCCn1c(=O)c2c(nc3n2CC(C)=C3)n(Cc2ccccc2)c1=O [Compound 17, 1-Benzyl-7-methyl-3-propyl-1H-pyrrolo[1,2-f]purine-2,4(3H,6H)-dione] |  |  | 99 |  | 8 | 400 | > 5000 | 3030 |  |  |  | 
